Values joined by “and” are separate entries in the source; they are usually repeats but may differ in a detail not shown here. Equal values may be shown once.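 Where inhibition never reached the appropriate level, the endpoint shown equals the highest concentration tested. Otherwise, values were interpolated linearly from a five-concentration, 48-hour dose response in 96-well plates. At the GI50, growth is halved. TGI: concentration producing complete growth inhibition.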
System: MDA-MB-468 breast
Assay: growth of human tumour cells (NCI), 48 h

CN(C)S(=O)(=O)c1oc(-c2ccccc2)nc1C#N
GI50: 12.3 µM
TGI: 32.9 µM

COc1ccc(Nc2nccc(N3CCN(c4c5ccc(Cl)cc5nc5ccc(OC)cc45)CC3)n2)cc1
GI50: 2.69 µM
TGI: 23 µM

c1cnn2ncc(-c3ccnc(Nc4ccc5c(c4)OCCO5)n3)c2c1
GI50: 0.0594 µM
TGI: 0.18 µM

COc1ccc(-c2cnoc2-c2cc(OC)c3c(c2)OCCO3)cc1
GI50: 0.0296 µM
TGI: 1.03 µM

CCOC(=O)N1CCN(CCCCCOc2ccccc2C2CCCCC2)CC1
GI50: 2.41 µM
TGI: 8.46 µM

c1ccc(-c2nc(N3CCCNCC3)c3nc(-c4ccccc4)oc3n2)cc1
GI50: 1.72 µM
TGI: 3.37 µM

Cc1ccc(-n2nc(C(C)(C)C)cc2NC(=O)NCc2cc(F)ccc2Oc2ccc3c(cnn3CCO)c2)cc1
GI50: 6.55 µM and 3.58 µM
TGI: > 65.9 µM

CC(=Nc1ccc(S(N)(=O)=O)cc1)c1c(O)[nH]c2ccccc12
GI50: > 25 µM
TGI: > 25 µM

CCOc1ccc(Nc2c3ccccc3nc3ccccc23)cc1
GI50: 0.258 µM and 0.325 µM
TGI: 0.987 µM and 2.32 µM

CC(C)Oc1ccc(C(=O)Cn2ccnc2)cc1-n1c(CN2CCN(C(=O)COc3ccc(Cl)cc3)CC2)nc2ccccc2c1=O
GI50: 9.95 µM
TGI: 35.9 µM

O=C(/C=C/c1cccc(O)c1)c1cccc(-n2cc(-c3ccc4ccccc4c3)[nH]c2=O)c1
GI50: 2.86 µM
TGI: 12.8 µM

O=C(c1cccs1)C1NO[N+]([O-])=C1c1cccs1 (stereo unspecified)
GI50: 1.69 µM
TGI: 3.38 µM

CCCCCCCCCCCCCC[n+]1cccc(C(N)=O)c1
GI50: 0.567 µM
TGI: 2.56 µM

OCc1ccc(N2CCOCC2)cc1Cl
GI50: 0.732 µM
TGI: 3.1 µM

COc1ccc(C2=C(N3CCc4ccccc43)C(=O)NC2=O)cc1
GI50: 18 µM
TGI: > 25 µM

Clc1ccc2c(c1)N(c1ncnc3ccc(-c4cnc5[nH]ncc5c4)cc13)CC2
GI50: 0.217 µM
TGI: 1.47 µM

O=[N+]([O-])c1ccc(-c2cc3c(Nc4ccc(Cl)c(C(F)(F)F)c4)ncnc3s2)cc1
GI50: 1.64 µM
TGI: 6.03 µM

CC(C)[O-].CC(C)[O-].CN(CCN(C)Cc1cc(F)cc(F)c1[O-])Cc1cc(F)cc(F)c1[O-].[Ti+4]
GI50: 0.542 µM
TGI: 2.88 µM

CCNCCNc1cc(-c2ccc(C#N)cc2)c(C#N)c2nc3ccccc3n12
GI50: 1.79 µM
TGI: 4.15 µM

Nc1cc(-c2ccc(Cl)cc2)nn1-c1nnc(/C=C/c2ccco2)c(=O)[nH]1
GI50: 3.08 µM
TGI: 22.2 µM

[2H]c1nc(=Nc2cc(NC(=O)C=C)c(N(C)CCN(C)C)cc2OC)[nH]c(-c2cn(C([2H])([2H])[2H])c3ccccc23)c1[2H]
GI50: 0.0288 µM
TGI: 0.957 µM

Clc1nncc2sc(-c3ccccc3)nc12
GI50: 14.4 µM
TGI: 69.5 µM

COc1ccc(C(=O)c2nc3ccccc3n2CC(=O)c2ccc(Cl)cc2)cc1
GI50: 2.08 µM
TGI: 11.5 µM

Fc1ccc2nc(-c3cc(-c4ccc5c(c4)OCO5)n[nH]3)[nH]c2c1
GI50: 3.58 µM
TGI: > 80.8 µM

COc1ccc(F)c(F)c1C(=O)c1cnc(NC2CCN(S(C)(=O)=O)CC2)nc1N
GI50: 1.37 µM and 0.687 µM
TGI: 3.54 µM and 2.7 µM

O=C1/C(=C/c2ccc([N+](=O)[O-])cc2)COc2ccc(O)cc21
GI50: 2.23 µM
TGI: 7.6 µM

CCn1c(-c2nonc2N)nc2ccncc21
GI50: > 25 µM
TGI: > 25 µM

CCN(CC)c1ccc(/C=C/C2=[N+](C)c3ccccc3C2(C)C)c(C)c1
GI50: < 0.019 µM
TGI: 0.181 µM

CC(C)(C)c1ccc(C(=O)Nc2sc3c(c2C(N)=O)CCC(O)C3)cc1 (stereo unspecified)
GI50: 3.01 µM
TGI: 12.6 µM

Nn1c(=O)n(-c2cccc(C(F)(F)F)c2)c(=O)c2cc(-c3ccc(F)cc3F)ccc21
GI50: 1.99 µM
TGI: 6.21 µM

CCN(CC)CCOc1ccc(C(=C(C)c2ccc(OC)cc2)c2ccc(OCCN(CC)CC)cc2)cc1
GI50: 0.83 µM
TGI: 1.86 µM

COc1cc2nc(-c3ccc(C(F)(F)F)cc3)cc(OCCCN3CCCC3)c2cc1OC
GI50: 1.09 µM
TGI: 3.72 µM

COc1cccc2c(=O)c3c(sc12)c(NCCCNCCO)nc1ccccc13
GI50: 1.53 µM
TGI: 3.13 µM

Source: PubChem BioAssay (NCI)
